# Patent US12440489B2 (priority 2016, dated 2025)
# Key:
# [1] = system: TH (tyrosine hydroxylase); experiment: CNS phosphoprotein profile, tyrosine hydroxylase phosphorylation at Ser40 in nucleus accumbens; format: in vivo, mice; conditions: mouse nucleus accumbens; for increase in TH phosphorylation: haloperidol 2 mg/kg, risperidone dose not given; for effect on tyrosine hydroxylase phosphorylation at Ser40 (in words): 3 mg/kg, 30 minutes or 60 minutes
# Protocol: (§1) A comprehensive molecular phosphorylation study is also carried out to examine the central nervous system (CNS) profile of the compounds of Example 1 and Example 3. The extent of protein phosphorylation for selected key central nervous system proteins is measured in mice nucleus accumbens.
# (§2) Mice were killed 30 minutes to 2 hours post-injection by focused microwave cranial irradiation, which preserves brain phosphoprotein as it exists at the time of death. Nucleus accumbens was then dissected from each mouse brain, sliced and frozen in liquid nitrogen. Samples were further prepared for phosphoprotein analysis via SDS-PAGE electrophoresis followed by phosphoprotein-specific immunoblotting, as described in Zhu H, et al., Brain Res. 2010 Jun 25; 1342:11-23. Phosphorylation at each site was quantified, normalized to total levels of the protein (non-phosphorylated), and expressed as percent of the level of phosphorylation in vehicle-treated control mice.
# [2] = system: 5-HT2 receptor; parameters: species or system mice; conditions: mouse, in vivo; for block of DOI head twitch (in words): po
# [3] = system: Mice; experiment: Mouse marble-burying study (OCD model); format: in vivo; conditions: for Marbles Buried: of 15 marbles, 30 min
# From the text: The marble burying test is used to measure repetitive and anxiety-related behavior in rodents. It is based on the observation that rats and mice will bury either harmful or harmless objects in their bedding, and it has been used as an animal model to measure the effect of pharmacological interventions in treatment of repetitive behavior disorders, such as OCD.
# MPEP is a selective mGluR5 glutamate receptor antagonist. […] Mice in groups (1) are orally administered the vehicle, and mice in group (4) are given an intraperitoneal injection of MPEP just prior to the start of the test.
# The test is conducted in rectangular cages with 4-5 cm of wood chip bedding in a room with the window shades lowered and the door closed to minimize distractions. Fifteen clean marbles are evenly spaced on top of the bedding in three rows of five marbles. One mouse is placed in each cage. The mouse and cage is left undisturbed for 30 minutes. At the end of the test, the mouse is removed and the number of marbles buried to at least ⅔ of their depth is counted.
# [4] = system: NR2B; experiment: CNS phosphoprotein profile, NR2B phosphorylation at Tyr1472 in nucleus accumbens; format: in vivo, mice; conditions: 3 mg/kg; 30-60 minutes; mouse nucleus accumbens
# Protocol: as §1, §2
# [5] = system: ERK2; experiment: CNS phosphoprotein profile, ERK2 phosphorylation at Thr183 and Tyr185 in nucleus accumbens; format: in vivo, mice; conditions: 3 mg/kg; mouse nucleus accumbens
# Protocol: as §1, §2
# [6] = system: GluR1; experiment: CNS phosphoprotein profile, GluR1 phosphorylation at Ser845 in nucleus accumbens; format: in vivo, mice; conditions: 3 mg/kg; mouse nucleus accumbens
# Protocol: as §1, §2
# [7] = biological target: Mu opiate receptor (Homo sapiens, UniProt P35372); format: binding
# Chain of Mu opiate receptor (P35372 whole entry): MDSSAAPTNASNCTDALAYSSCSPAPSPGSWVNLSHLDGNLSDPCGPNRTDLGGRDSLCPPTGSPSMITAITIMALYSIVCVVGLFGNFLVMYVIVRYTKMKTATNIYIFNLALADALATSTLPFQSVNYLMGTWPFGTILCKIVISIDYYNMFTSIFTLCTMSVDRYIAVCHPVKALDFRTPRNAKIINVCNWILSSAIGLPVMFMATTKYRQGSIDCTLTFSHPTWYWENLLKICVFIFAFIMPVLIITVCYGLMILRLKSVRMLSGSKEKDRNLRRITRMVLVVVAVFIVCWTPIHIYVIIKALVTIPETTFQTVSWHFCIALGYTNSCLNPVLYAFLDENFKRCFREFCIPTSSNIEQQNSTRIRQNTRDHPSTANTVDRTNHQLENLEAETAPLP
structure (smiles),measurement,setting,value
"O=C(CCCN1CCC(O)(c2ccc(Cl)cc2)CC1)c1ccc(F)cc1 [haloperidol, reference compound]",increase in TH phosphorylation,[1],greater than 400%
"CN1CCN2c3c(cccc31)[C@@H]1CN(CCCC(O)c3ccc(F)cc3)CC[C@@H]12 (stereo partly shown) [Formula B, reference compound]",EC50 for reducing DOI-induced head twitches,[2],"0.31 mg/kg, p.o."
"Cc1cccc(C#Cc2ccccc2)n1 [MPEP, 2-methyl-6-(phenylethynyl)pyridine, reference compound]",Marbles Buried,[3]; 20 mg/kg intraperitoneal just prior to the test,0.2
"Cc1nc2n(c(=O)c1CCN1CCC(c3noc4cc(F)ccc34)CC1)CCCC2 [risperidone, reference compound]",increase in TH phosphorylation,[1],greater than 500%
"O=C1CN2c3c(cccc3[C@@H]3CN(CCCOc4ccc(F)cc4)CC[C@@H]32)N1 [Example 3, (6bR,10aS)-8-(3-(4-Fluorophenoxy)Propyl)-6b,7,8,9,10,10a-Hexahydro-1H-Pyrido[3′,4′:4,5]Pyrrolo[1,2,3-De]Quinoxalin-2(3H)-One]",effect on NR2B phosphorylation at Tyr1472 (in words),[4],neither the compound of Example 1 nor of Example 3 has a significant effect
same,effect on tyrosine hydroxylase phosphorylation at Ser40 (in words),[1],neither the compound of Example 1 nor of Example 3 has a significant effect
same,Marbles Buried,[3]; 0.3 mg/kg orally 30 minutes prior to the test,9.3
same,decrease in marble burying compared to the control (in words),"[3]; 0.3 mg/kg, p <0.01",statistically significant decrease
same,EC50 for reducing DOI-induced head twitches,[2],"0.44 mg/kg, p.o."
same,block of DOI head twitch (in words),[2],potently block DOI head twitch
same,effect on ERK2 phosphorylation at Thr183 and Tyr185 (in words),[5],slight decrease
same,effect on GluR1 phosphorylation at Ser845 (in words),[6],slight increase
"CN1CCN2c3c(cccc31)[C@@H]1CN(CCCC(=O)c3ccc(F)cc3)CC[C@@H]12 [Formula A, reference compound]",activity at the Mu opiate receptor (in words),[7],not active
"O=C1CN2c3c(cccc3[C@@H]3CN(CCCC(=O)c4ccc(F)cc4)CC[C@@H]32)N1 [Example 1, 4-((6bR,10aS)-2-Oxo-2,3,6b,9,10,10a-Hexahydro-1H,7H-Pyrido[3′,4′:4,5]Pyrrolo[1,2,3-De]Quinoxalin-8-Yl)-1-(4-Fluoro-Phenyl)-Butan-1-One]",effect on NR2B phosphorylation at Tyr1472 (in words),[4],neither the compound of Example 1 nor of Example 3 has a significant effect
same,effect on tyrosine hydroxylase phosphorylation at Ser40 (in words),[1],neither the compound of Example 1 nor of Example 3 has a significant effect
same,EC50 for reducing DOI-induced head twitches,[2],"0.23 mg/kg, p.o."
same,block of DOI head twitch (in words),[2],potently block DOI head twitch
same,effect on ERK2 phosphorylation at Thr183 and Tyr185 (in words),[5],slight decrease
same,effect on GluR1 phosphorylation at Ser845 (in words),[6],slight increase
